The values below come from the supplement of paper PMC12137928.

The subject of this assay is HCT116. Conditions: 72 h. The method, boiled down:
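Luminescence was read with CellTiter-Glo in HCT116 cells seeded at 250 per well in 1536-well plates. Signals were scaled between vehicle at 0% and positive control at -100%, then pattern-corrected. IC50 and maximal efficacy were obtained by fitting a four-parameter Hill equation.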

Where a name gives a salt, the structure may show the parent alone. A value given as a limit tells only on which side of the number the result lay.

As to `CC[C@@H](C(N)=O)N1CCCC1=O` [Levetiracetam], the IC50 cell viability is, setting by setting: (ICRF193 0 nM) greater than 45.8 µM; (ICRF193 200 nM) greater than 45.8 µM.
In turn, `O=C(O)c1ccc2nc(-c3cc(Cl)cc(Cl)c3)oc2c1` [Tafamidis] showed an IC50 cell viability (ICRF193 0 nM) greater than 45.8 µM and an IC50 cell viability (ICRF193 200 nM) greater than 45.8 µM.
On to `CC[C@@H]1CCN[C@H](C(=O)N[C@@H]([C@H]2O[C@H](SC)[C@H](O)[C@@H](O)[C@H]2O)[C@H](C)Cl)C1` [Pirlimycin Hydrochloride], for which the IC50 cell viability is greater than 45.8 µM (ICRF193 0 nM) and greater than 45.8 µM (ICRF193 200 nM).
For `CNC(=C[N+](=O)[O-])NCCSCc1csc(CN(C)C)n1` [Nizatidine], the IC50 cell viability was greater than 45.8 µM (ICRF193 0 nM) and greater than 45.8 µM (ICRF193 200 nM).
Consider `COc1ccc([C@]2(C#N)CC[C@@H](C(=O)O)CC2)cc1OC1CCCC1` [Cilomilast], for which the IC50 cell viability by setting is: (ICRF193 0 nM) greater than 45.8 µM; (ICRF193 200 nM) greater than 45.8 µM.
As for `CC(Oc1ccccc1)C(=O)N[C@@H]1C(=O)N2[C@@H]1SC(C)(C)[C@@H]2C(=O)O` (stereo partly specified) [Phenethicillin potassium salt], the IC50 cell viability by setting is: (ICRF193 0 nM) greater than 45.8 µM; (ICRF193 200 nM) greater than 45.8 µM.
As to `Cc1nc(=O)c2cc(CN(C)c3ccc(C(=O)N[C@@H](CCC(=O)O)C(=O)O)s3)ccc2[nH]1` [Raltitrexed], the IC50 cell viability by setting is: (ICRF193 0 nM) greater than 45.8 µM; (ICRF193 200 nM) greater than 45.8 µM.
Regarding `COC(=O)c1ccccc1O` [Methyl salicylate], the IC50 cell viability was greater than 45.8 µM (ICRF193 0 nM) and greater than 45.8 µM (ICRF193 200 nM).
For the compound `CCN1CCN(C(=O)N[C@@H](C(=O)N[C@@H]2C(=O)N3[C@@H]2SC(C)(C)[C@@H]3C(=O)O)c2ccccc2)C(=O)C1=O` [Piperacillin sodium salt], the IC50 cell viability reads like this: (ICRF193 0 nM) greater than 45.8 µM; (ICRF193 200 nM) greater than 45.8 µM.
In the case of `CN1C[C@@H]2C[C@H]1CN2c1cc2c(cc1F)c(=O)c(C(=O)O)cn2C1CC1` [Danofloxacin], the IC50 cell viability is greater than 45.8 µM (ICRF193 0 nM) and greater than 45.8 µM (ICRF193 200 nM).
The compound `CC(=O)OC[C@H]1O[C@@H](n2ccc(=O)[nH]c2=O)[C@H](OC(C)=O)[C@@H]1OC(C)=O` [Uridine triacetate] came in with an IC50 cell viability (ICRF193 0 nM) greater than 45.8 µM and an IC50 cell viability (ICRF193 200 nM) greater than 45.8 µM.
Turning to `O=C1CN2CCOC2(c2ccccc2Cl)c2cc(Cl)ccc2N1` (stereo unspecified) [Cloxazolam], the IC50 cell viability reads like this: (ICRF193 0 nM) greater than 45.8 µM; (ICRF193 200 nM) greater than 45.8 µM.
Take `CCOC(=O)c1cccc(N)c1` [Ethyl 3-aminobenzoate methanesulfonic acid salt]: the IC50 cell viability reads like this: (ICRF193 0 nM) greater than 45.8 µM; (ICRF193 200 nM) greater than 45.8 µM.
Take `CCOC(=O)c1cc(=O)c2c(OCC(COc3cccc4oc(C(=O)OCC)cc(=O)c34)OC(=O)[C@@H](N)CCCCN)cccc2o1` [Cromoglicate lisetil]: the IC50 cell viability is greater than 45.8 µM (ICRF193 0 nM) and greater than 45.8 µM (ICRF193 200 nM).
Turning to `CSCC[C@H](NC(=O)[C@H](Cc1ccc(OS(=O)(=O)O)cc1)NC(=O)[C@@H](N)CC(=O)O)C(=O)NCC(=O)N[C@@H](Cc1c[nH]c2ccccc12)C(=O)N[C@@H](CCSC)C(=O)N[C@@H](CC(=O)O)C(=O)N[C@@H](Cc1ccccc1)C(N)=O` [Sincalide], the IC50 cell viability reads like this: (ICRF193 0 nM) greater than 45.8 µM; (ICRF193 200 nM) greater than 45.8 µM.
Compound `CC(C)NCC(O)COc1cccc2[nH]ccc12` (stereo unspecified) [Pindolol] displayed an IC50 cell viability (ICRF193 0 nM) greater than 45.8 µM and an IC50 cell viability (ICRF193 200 nM) greater than 45.8 µM.
On to `COc1ccc2[nH]c([S+]([O-])Cc3ncc(C)c(OC)c3C)nc2n1` (stereo unspecified) [Tenatoprazole], for which the IC50 cell viability by setting is: (ICRF193 0 nM) greater than 45.8 µM; (ICRF193 200 nM) greater than 45.8 µM.
For the compound `CCC[C@@H]1C[C@@H](C(=O)N[C@@H]([C@H]2O[C@H](SC)[C@H](O)[C@@H](O)[C@H]2O)[C@@H](C)O)N(C)C1` [Lincomycin hydrochloride], the IC50 cell viability was greater than 45.8 µM (ICRF193 0 nM) and greater than 45.8 µM (ICRF193 200 nM).
Consider `NC(=O)NC(=O)Cc1ccccc1` [Phenacemide], for which the IC50 cell viability reads like this: (ICRF193 0 nM) greater than 45.8 µM; (ICRF193 200 nM) greater than 45.8 µM.
As to `CC/C=C\C/C=C\C/C=C\C/C=C\C/C=C\C/C=C\CCC(=O)O` [DOCONEXENT], the IC50 cell viability by setting is: (ICRF193 0 nM) greater than 45.8 µM; (ICRF193 200 nM) greater than 45.8 µM.
The compound `CCCCCCCCCCCCCCCC(=O)OC[C@H](O)[C@H]1OC(=O)C(O)=C1O` [L-Ascorbyl 6-palmitate] gave an IC50 cell viability (ICRF193 0 nM) greater than 45.8 µM and an IC50 cell viability (ICRF193 200 nM) greater than 45.8 µM.
For `C1CNCCN1` [Piperazine], the IC50 cell viability by setting is: (ICRF193 0 nM) greater than 45.8 µM; (ICRF193 200 nM) greater than 45.8 µM.
Consider `CC/C=C\C/C=C\C/C=C\C/C=C\C/C=C\CCCC(=O)O` [Eicosapentaenoic Acid], for which the IC50 cell viability was greater than 45.8 µM (ICRF193 0 nM) and greater than 45.8 µM (ICRF193 200 nM).
Consider `COc1ncnc(NS(=O)(=O)c2ccc(N)cc2)c1OC` [Sulfadoxine], for which the IC50 cell viability (ICRF193 0 nM) is greater than 45.8 µM and the IC50 cell viability (ICRF193 200 nM) was greater than 45.8 µM.
Consider `C[N+]1(CC2COC(c3ccccc3)(c3ccccc3)O2)CCCCC1` (stereo unspecified) [Anacolin], for which the IC50 cell viability is greater than 45.8 µM (ICRF193 0 nM) and greater than 45.8 µM (ICRF193 200 nM).
In the case of `CCN(CC)CCOC(=O)c1cccnc1` [Nicametate citrate], the IC50 cell viability was greater than 45.8 µM (ICRF193 0 nM) and greater than 45.8 µM (ICRF193 200 nM).
For `N=C(N)c1ccc(OCCCOc2ccc(C(=N)N)cc2)cc1` [Propamidine], the IC50 cell viability (ICRF193 0 nM) is greater than 45.8 µM and the IC50 cell viability (ICRF193 200 nM) is greater than 45.8 µM.
`CCCCCCCCCCCCCC(=O)OC(C)C` [Isopropyl tetradecanoic acid] gave an IC50 cell viability (ICRF193 0 nM) greater than 45.8 µM and an IC50 cell viability (ICRF193 200 nM) greater than 45.8 µM.
In the case of `CCOc1ccccc1OC(c1ccccc1)C1CNCCO1` (stereo unspecified) [Reboxetine mesylate], the IC50 cell viability (ICRF193 0 nM) was greater than 45.8 µM and the IC50 cell viability (ICRF193 200 nM) is greater than 45.8 µM.
On to `CN(C)CCOC(C)(c1ccccc1)c1ccccn1` (stereo unspecified) [Doxylamine succinate], for which the IC50 cell viability is, setting by setting: (ICRF193 0 nM) greater than 45.8 µM; (ICRF193 200 nM) greater than 45.8 µM.
For `CCOP(=S)(OCC)Oc1ccc2c(C)c(Cl)c(=O)oc2c1` [Coumaphos], the IC50 cell viability (ICRF193 0 nM) was greater than 45.8 µM and the IC50 cell viability (ICRF193 200 nM) is greater than 45.8 µM.
For the compound `NC(=O)c1ncn([C@@H]2O[C@H](CO)[C@@H](O)[C@H]2O)c1O` [Mizoribine], the IC50 cell viability reads like this: (ICRF193 0 nM) greater than 45.8 µM; (ICRF193 200 nM) greater than 45.8 µM.
For `NCCC[C@H](N)CC(=O)N[C@H]1CNC(=O)[C@H]([C@H]2C[C@H](O)NC(N)=N2)NC(=O)/C(=C/NC(N)=O)NC(=O)[C@H](CO)NC(=O)[C@H](CO)NC1=O` [VIOMYCIN SULFATE], the IC50 cell viability by setting is: (ICRF193 0 nM) greater than 45.8 µM; (ICRF193 200 nM) greater than 45.8 µM.
As to `C[C@]12CC[C@H]3[C@@H](CC[C@@]45O[C@@H]4C(O)=C(C#N)C[C@]35C)[C@@H]1CC[C@@H]2O` [Trilostane], the IC50 cell viability is, setting by setting: (ICRF193 0 nM) greater than 45.8 µM; (ICRF193 200 nM) greater than 45.8 µM.
As for `Cc1ccnc2c1NC(=O)c1cccnc1N2C1CC1` [Nevirapine], the IC50 cell viability by setting is: (ICRF193 0 nM) greater than 45.8 µM; (ICRF193 200 nM) greater than 45.8 µM.
With `CCCCCCCCCCC(=O)O[C@H]1CC[C@H]2[C@@H]3CCC4=CC(=O)CC[C@]4(C)[C@H]3CC[C@]12C` [Testosterone (undecanoate)], the IC50 cell viability reads like this: (ICRF193 0 nM) greater than 45.8 µM; (ICRF193 200 nM) greater than 45.8 µM.
For the compound `CCN(CCCc1ccccc1)CCCc1ccccc1` [Alverine citrate], the IC50 cell viability (ICRF193 0 nM) was greater than 45.8 µM and the IC50 cell viability (ICRF193 200 nM) was greater than 45.8 µM.
Regarding `NS(=O)(=O)c1cc(C(=O)O)c(NCc2ccco2)cc1Cl` [Furosemide], the IC50 cell viability reads like this: (ICRF193 0 nM) greater than 45.8 µM; (ICRF193 200 nM) greater than 45.8 µM.
